This note sets out measurements from patent US11926628B2 (Gilead Sciences, Inc., priority 2021, dated 2024).

As a reminder, the IC50 is the concentration needed to halve the response being measured. As usually defined, the EC50 is the concentration that produces a half-maximal response.

Structures are written as SMILES.

The target in test [1] is human DGKα (Homo sapiens (Human), UniProt P23743). The test can be described thus: DGKα Biochemical Activity Assay (ADP-Glo). The note with it: recombinant DGKα 1 nM, 100 μM ATP, 18:1 DAG/POPS/octylglucoside micelles, 1 hour at 25° C.; geometric mean; read-out: HTBS DGKa 1X ATP KM IC50. An excerpt:
Alternatively, the enzymatic activity of human DGKα was monitored in a biochemical assay in the presence or absence of compounds and using micelles containing 18:1 Diacylglycerol (DAG), 16:0-18:1 PS (POPS) and Octylglucoside as substrate. DGKα activity led to conversion of DAG and ATP to Phosphatidic Acid (PA) and ADP. Levels of ADP were monitored by bioluminescence using the ADP-Glo Kinase Assay (Promega) and were indicative of DGKα activity.
Ten nanoliters of test compound dissolved in DMSO at various concentrations were dispensed into a 384-well low volume nonbinding service white plates (Corning #3824) using a Labcyte Echo instrument. Recombinant DGKα (Carna Biosciences) in assay buffer (5 μL in 50 mM MOPS [3-(N-morpholino) propanesulfonic acid], pH 7.2; 0.0025% Triton X-100; 1 mM dithiothreitol; 5 mM MgCl2, 200 μM ATP) was added to the compound-containing plate and was incubated for 15 minutes at 25° C. A substrate solution (5 μL in 1.7 mM 1,2-dioleoyl-sn-glycerol [18:1 DAG], 13.5 mM 1-palmitoyl-2-oleoyl-sn-glycero-3-phospho-L-serine [16:0-18:1 PS](POPS), 2 μM CaCl2, 100 mM Octylglucoside (OG), 1 mM DTT) (obtained from Carna Biosciences) diluted in DGK ALPHA assay buffer was then added to start the reaction. Final concentrations were 1 nM DGKα, 100 μM ATP, 1 μM calcium chloride, 0.85 mM 1,2-dioleoyl-sn-glycerol (18:1 DAG), 6.75 mM 1-palmitoyl-2-oleoyl-sn-glycero-3-phospho-L-serine (16:0-18:1 PS) (POPS), 1 μM CaCl2), 50 mM Octylglucoside (OG) and 5 mM MgCl2. The reaction mixture was incubated at 25° C. for 1 hour. ADP-Glo Reagent (10 μL, 10 mM Mg added) provided by the kit was added to each well and incubated at 25° C. for 40 minutes. Then, 20 μL of Kinase Detection Reagent was added and incubated at 25° C. for 40 minutes. Luciferase activity of each well was measured via luminescence on an Envision plate reader (PerkinElmer).
Data were normalized based on maximum inhibition (50 μM of kinase inhibitor CU3) and no inhibition (DMSO) controls. Least squares curve fittings were performed using a four-parameter variable slope nonlinear regression model. IC50 was defined as the concentration of compound required to inhibit 50% of maximum activity. IC50 values from multiple experiments were averaged by geometric mean and the standard deviation was calculated.

For test [2], the system named is Jurkat NFκB-luciferase cells. The test can be described thus: Jurkat NFκB-Luciferase Assay. The settings on record: Homo sapiens; Jurkat NFκB-luciferase cells activated with anti-CD3 antibody (OKT3), 2.5 hrs at 37° C.; geometric mean; read-out: DGK NFKb Luciferase EC50. It counts as cell-based. As to the method: The activity of compounds was tested in a cell based NFκB reporter assay. Jurkat cells that are stably expressing a luciferase reporter construct under the transcriptional control of a NFκB reporter element were activated with an anti-CD3 antibody and luciferase levels were measured with a bioluminescence readout. An increase in the levels of bioluminescence was indicative of enhanced T-cell activation following DGKα inhibition by the compound.
Flat-bottom polystyrene plates (384-well, tissue culture treated) were coated overnight at 4° C. with 20 ul/well of a solution of phosphate-buffered saline supplemented with 5 ug/ml anti-CD3 antibody (clone OKT3, Biolegend). The day after, the excess antibody was washed out five times with 100 ul/well of assay medium (RPMI supplemented with 10% fetal bovine serum) using a Biotek EL406 instrument and leaving 20 ul of residual volume in each well. Jurkat NFκB-luciferase cells (Promega #) were harvested and diluted to 1 million cells/ml in assay medium. Sixty nanoliters of test compound dissolved in DMSO at various concentrations were dispensed into 384-well v-bottom polypropylene plates (Greiner) using a Labcyte Echo instrument. Thirty microliters of medium containing the Jurkat NFκB-luciferase cells were then dispensed using a Biotek MicroFlo instrument in each well of the compound-containing plate. The medium/cell/compound mixture was mixed with a Bravo instrument and 20 ul/well of the mixture was transferred to the anti-CD3-coated plate. The assay mixture was then incubated for 2.5 hrs at 37° C. followed by equilibration at 25° C. for 30 min. Forty microliters of One-Glo Ex (Promega) was then added to the assay mixture and luciferase activity was read on a Envision plate reader 7 minutes later.
Bioluminescence data were normalized based on maximum enhancement (1 micromolar of compound) and on basal activation (DMSO) controls. Least squares curve fittings were performed using a four-parameter variable slope nonlinear regression model. EC50 is defined as the concentration of compound required to produce 50% of maximum NFκB luciferase signal. EC50 values from multiple experiments were averaged by geometric mean and the standard deviation was calculated.

human DGKα, sequence (P23743 whole entry): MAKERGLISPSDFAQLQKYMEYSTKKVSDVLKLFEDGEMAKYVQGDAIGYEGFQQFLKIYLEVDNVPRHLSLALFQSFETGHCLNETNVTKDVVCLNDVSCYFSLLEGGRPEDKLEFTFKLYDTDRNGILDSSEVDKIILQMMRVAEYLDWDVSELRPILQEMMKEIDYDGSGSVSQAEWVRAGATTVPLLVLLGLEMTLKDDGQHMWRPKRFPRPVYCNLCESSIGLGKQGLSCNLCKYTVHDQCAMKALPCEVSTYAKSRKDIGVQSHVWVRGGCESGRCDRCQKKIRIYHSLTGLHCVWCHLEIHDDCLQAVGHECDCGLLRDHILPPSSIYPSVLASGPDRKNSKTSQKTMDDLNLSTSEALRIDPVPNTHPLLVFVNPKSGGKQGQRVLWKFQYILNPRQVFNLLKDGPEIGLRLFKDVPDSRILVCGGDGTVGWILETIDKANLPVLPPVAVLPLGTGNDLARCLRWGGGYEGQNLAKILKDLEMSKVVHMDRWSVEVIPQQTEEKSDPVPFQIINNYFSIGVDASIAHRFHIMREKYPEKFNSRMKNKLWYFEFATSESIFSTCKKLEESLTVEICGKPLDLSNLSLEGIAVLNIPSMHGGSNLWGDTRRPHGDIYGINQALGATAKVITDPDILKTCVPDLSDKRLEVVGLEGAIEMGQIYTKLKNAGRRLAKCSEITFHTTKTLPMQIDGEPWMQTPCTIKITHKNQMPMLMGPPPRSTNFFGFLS

In the case of `CN(c1cccc(C#CC(C)(C)O)c1)c1nc2nnnn2c2cc(Cl)ccc12` [Example 10, 4-(3-((8-chlorotetrazolo[1,5-a]quinazolin-5-yl)(methyl)amino)phenyl)-2-methylbut-3-yn-2-ol], the concentration for half-maximal inhibition (IC50) in test [1] was 93.1 nM. Moreover, the EC50 in test [2] was 8.66 nM.
The matching figures for `CC(C)(C#N)C#Cc1cccc2c1CCCN2c1nc2nncn2c2ncc(F)cc12` [Example 147, 4-(1-(3-fluoropyrido[3,2-e][1,2,4]triazolo[4,3-a]pyrimidin-5-yl)-1,2,3,4-tetrahydroquinolin-5-yl)-2,2-dimethylbut-3-ynenitrile]: 4.38 nM and 4.24 nM.
For the molecule `CCC(O)C#Cc1cccc2c1CCCN2c1nc2nncn2c2ncc(F)cc12` (centres unmarked) [Example 146, 1-(1-(3-fluoropyrido[3,2-e][1,2,4]triazolo[4,3-a]pyrimidin-5-yl)-1,2,3,4-tetrahydroquinolin-5-yl)pent-1-yn-3-ol], the IC50 in test [1] was 7.78 nM. The 50% effective concentration (EC50) in test [2] is 18.1 nM.
Take `CN(c1cccc(C#CC2(C(F)(F)F)CC2)c1)c1nc2nncn2c2ncc(F)cc12` [Example 154, 3-fluoro-N-methyl-N-(3-((1-(trifluoromethyl)cyclopropyl)ethynyl)phenyl)pyrido[3,2-e][1,2,4]triazolo[4,3-a]pyrimidin-5-amine]: in test [1], the half-maximal inhibitory concentration (IC50) turned out to be 20.7 nM. Besides, the EC50 in test [2] amounted to 3.54 nM.
On to `FC(F)(F)C1(C#Cc2cccc3c2CCCN3c2nc3nncn3c3cccnc23)CC1` [Example 25, 8-[5-[2-[1-(trifluoromethyl)cyclopropyl]ethynyl]-3,4-dihydro-2H-quinolin-1-yl]-2,4,5,7,10-pentazatricyclo[7.4.0.02,6]trideca-1(13),3,5,7,9,11-hexaene], for which, in test [1], the IC50 amounted to 22.6 nM. In addition, in test [2], the EC50 is 3.08 nM.
On to `CC1(C#Cc2cccc3c2CCCN3c2nc3nncn3c3ncc(F)cc23)CC1` [Example 109, 3-fluoro-5-(5-((1-methylcyclopropyl)ethynyl)-3,4-dihydroquinolin-1(2H)-yl)pyrido[3,2-e][1,2,4]triazolo[4,3-a]pyrimidine], for which the 50% inhibitory concentration (IC50) in test [1] is 5.62 nM. Besides, in test [2], the EC50 is 1.75 nM.
`Cc1nnc2nc(N3CCOCc4c(C#CC5CC5)cccc43)c3c(F)cncc3n12` [Example 80, 6-(cyclopropylethynyl)-1-(6-fluoro-1-methylpyrido[4,3-e][1,2,4]triazolo[4,3-a]pyrimidin-5-yl)-1,2,3,5-tetrahydrobenzo[e][1,4]oxazepine]: in test [1], the IC50 was 1.68 nM. Further, in test [2], the EC50 came to 4.78 nM.
In the case of `CN(c1cc(F)cc(-c2ccc(N3CC4(CC4)CS3(=O)=O)nc2)c1)c1nc2nnnn2c2ccc(F)cc12` [Example 8], the IC50 in test [1] is 31.1 nM. Moreover, the EC50 in test [2] stood at 4.66 nM.
`Cc1nnc2nc(N3CCCc4c(C#CC5(C)CC5)cccc43)c3ccc(C(F)(F)F)nc3n12` [Example 143, 9-methyl-5-(5-((1-methylcyclopropyl)ethynyl)-3,4-dihydroquinolin-1(2H)-yl)-2-(trifluoromethyl)pyrido[3,2-e][1,2,4]triazolo[4,3-a]pyrimidine]: the IC50 in test [1] stood at 1.38 nM. The concentration giving a half-maximal response (EC50) in test [2] was 0.051 nM.
The matching figures for `FCC1(C#Cc2cccc3c2CCCN3c2nc3nncn3c3cccnc23)CC1` [Example 27, 5-(5-((1-(fluoromethyl)cyclopropyl)ethynyl)-3,4-dihydroquinolin-1(2H)-yl)pyrido[2,3-e][1,2,4]triazolo[4,3-a]pyrimidine]: 6.83 nM and 6.11 nM.
With `Cc1nnc2nc(N3CCCCc4c(C#CC5(C(F)F)CC5)cccc43)c3c(F)cncc3n12` [Example 67, 5-(6-((1-(difluoromethyl)cyclopropyl)ethynyl)-2,3,4,5-tetrahydro-1H-benzo[b]azepin-1-yl)-6-fluoro-1-methylpyrido[4,3-e][1,2,4]triazolo[4,3-a]pyrimidine], the IC50 in test [1] was 3.96 nM. In addition, in test [2], the EC50 worked out at 1.24 nM.
As to `CN(c1cc(F)cc(C#CC2(C(F)(F)F)CC2)c1)c1nc2cncn2c2cc(Cl)ccc12` [Example 2, 8-chloro-N-[3-fluoro-5-[2-[1-(trifluoromethyl)cyclopropyl]ethynyl]phenyl]-N-methyl-imidazo[1,5-a]quinazolin-5-amine], the IC50 in test [1] came out at 2310 nM. For the same molecule, the EC50 in test [2] stood at 5.11 nM.
As for `CCN(c1cccc(-c2ccc(C3CC3)nc2)c1)c1nc2nncn2c2cnccc12` [Example 58, N-[3-(6-cyclopropyl-3-pyridyl)phenyl]-N-ethyl-2,4,5,7,12-pentazatricyclo[7.4.0.02,6]trideca-1(13),3,5,7,9,11-hexaen-8-amine], the concentration for half-maximal inhibition (IC50) in test [1] worked out at 219 nM. Also, the EC50 in test [2] is 28.9 nM.
For the molecule `CC1(C#Cc2cccc3c2CCCN3c2nc3nncn3c3cnccc23)CC1` [Example 82], in test [1], the half-inhibitory concentration (IC50) was 10.3 nM. In addition, in test [2], the EC50 amounted to 1.3 nM.
With `Cc1nnc2nc(N3CCCc4c(C#CC5(C)CC5)cccc43)c3ncccc3n12` [Example 22, 3-methyl-8-[5-[2-(1-methylcyclopropyl)ethynyl]-3,4-dihydro-2H-quinolin-1-yl]-2,4,5,7,10-pentazatricyclo[7.4.0.02,6]trideca-1(13),3,5,7,9,11-hexaene], in test [1], the IC50 is 23.2 nM. Further, the EC50 in test [2] is 3.26 nM.
With `Cc1nnc2nc(N3CCCOc4c(C#CC5(C(F)(F)F)CC5)cccc43)c3c(F)cncc3n12` [Example 72, 5-(6-fluoro-1-methylpyrido[4,3-e][1,2,4]triazolo[4,3-a]pyrimidin-5-yl)-9-((1-(trifluoromethyl)cyclopropyl)ethynyl)-2,3,4,5-tetrahydrobenzo[b][1,4]oxazepine], the IC50 in test [1] is 7.4 nM. In addition, the EC50 in test [2] is 3.03 nM.
The matching figures for `Cc1nnc2nc(N(CC(F)F)c3ccnc(C#CC(C)(C)O)c3)c3c(F)cncc3n12` [Example 52, 4-(4-((2,2-difluoroethyl)(6-fluoro-1-methylpyrido[4,3-e][1,2,4]triazolo[4,3-a]pyrimidin-5-yl)amino)pyridin-2-yl)-2-methylbut-3-yn-2-ol]: 204 nM and 1000 nM.
Regarding `Cc1nnc2nc(N3CCCc4c(C#CC5(C(C)(F)F)CC5)cncc43)c3c(F)cncc3n12` [Example 34, 5-(5-((1-(1,1-difluoroethyl)cyclopropyl)ethynyl)-3,4-dihydro-1,7-naphthyridin-1(2H)-yl)-6-fluoro-1-methylpyrido[4,3-e][1,2,4]triazolo[4,3-a]pyrimidine], the IC50 in test [1] was 42.8 nM. Besides, the EC50 in test [2] stood at 3.34 nM.
Regarding `CN(c1cccc(C#CC(C)(C)C)c1)c1nc2nncn2c2nc(N)ccc12` [Example 126, N5-(3-(3,3-dimethylbut-1-yn-1-yl)phenyl)-N5-methylpyrido[3,2-e][1,2,4]triazolo[4,3-a]pyrimidine-2,5-diamine], the IC50 in test [1] came to 21.4 nM. Besides, the concentration for a half-maximal effect (EC50) in test [2] worked out at 3.15 nM.
